Test results: patent US8466160B2, “Identification of non-small cell lung carcinoma (NSCLC) tumors expressing PDGFR-alpha” (priority 2005, dated 2013)
Counter-ions that a name gives are not always drawn.

Experiments:
ERK phosphorylation = test: Western blot of ERK phosphorylation in H1703 cells; format: cell-based, human; details: FIG. 9(a)
Description: (§1) Phosphorylation of the EGFR receptor, ERK and AKT were determined while total PDGFRα and ERK1/2 are included as loading controls. […] AKT is thought to be the primary driver of cell survival (see Franke, Cell 88: 435-437 (1997)).

H1703 cell line = test: MTT cell proliferation assay, H1703; format: cell-based, human; details: concentrations similar to K562 (0.1 μM)
[1] = system: PDGFRα-expressing human NSCLC tumors (H1703) xenografts; test: Tumor size in mouse xenografts of PDGFRα-expressing human NSCLC tumors; format: in vivo, mice
Description: This hypothesis was tested using mouse xenografts derived from the H1703 cell line.
(§2) In this model, human cell lines are injected into immune-compromised mice forming xenograft tumors that resemble human tumors including vascularization and other features found in human tumors. The mice are then administered the drug in the same manner as in human patients. Tumor size may be monitored visually during drug treatment and the tumors may be removed, fixed and analyzed by standard IHC procedures or lysed and analyzed by Western blot.

K562 cell line = test: MTT cell proliferation assay, K562; format: cell-based
A549 cell line [2] = details: Mol. Cancer 2003, not reproduced by the inventors; cited from earlier work
A549 cell line [3] = test: MTT cell proliferation assay, A549; format: cell-based, human
PDGFRα phosphorylation [4] = test: Western blot of PDGFRα phosphorylation in H1703 cells; format: cell-based, human; details: dose response, FIG. 9(b)
PDGFRα phosphorylation [5] = test: Western blot / IHC of PDGFRα phosphorylation in xenograft tumors; format: in vivo, mice
Description: as §2

H1373 cell line = test: MTT cell proliferation assay, H1373; format: cell-based, human
AKT phosphorylation [6] = test: Western blot of AKT phosphorylation in H1703 cells; format: cell-based, human
Description: as §1

AKT phosphorylation [7] = test: IHC of AKT phosphorylation in xenograft tumors; format: in vivo, mice; details: treated vs control tumors, FIG. 11
Description: as §2

COc1cc2ncnc(Nc3ccc(F)c(Cl)c3)c2cc1OCCCN1CCOCC1 [Iressa™]
effect on ERK phosphorylation (ERK phosphorylation): decreases

Cc1ccc(NC(=O)c2ccc(CN3CCN(C)CC3)cc2)cc1Nc1nccc(-c2cccnc2)n1 [Gleevec®, Imatinib mesylate]
sensitivity of cell growth to Gleevec (MTT) (H1703 cell line): sensitive
average tumor diameter in treated mice ([1]; 3 treated mice, control approximately 190 mm): approximately 20 mm
effect on tumor size ([1]; xenograft, FIG. 10(a)): significant decrease in tumor size
concentration at which cell line is sensitive (MTT) (K562 cell line): 0.1 µM
growth of A549 cell line as reported by Zhang et al. (A549 cell line [2]): growth inhibition
concentration up to which cell growth was not affected (MTT) (A549 cell line [3]): > 10 µM
lowest dose that inhibits PDGFRα phosphorylation (PDGFRα phosphorylation [4]): 0.01 µM
effect on PDGFRα phosphorylation in xenograft tumors (IHC) (PDGFRα phosphorylation [5]; treated vs control tumors, FIG. 11): decrease
effect on PDGFRα phosphorylation in xenografts (Western blot) (PDGFRα phosphorylation [5]; tumor lysate, 4 treated mice vs one control): inhibiting PDGFRα phosphorylation
sensitivity of cell growth to Gleevec (MTT) (H1373 cell line): insensitive
effect on AKT phosphorylation (AKT phosphorylation [6]; Western blot, FIG. 9(a)): loss of AKT phosphorylation
dose that greatly inhibits AKT phosphorylation (AKT phosphorylation [6]; dose response, FIG. 9(b)): 0.1 µM
effect on AKT phosphorylation in xenograft tumors (IHC) (AKT phosphorylation [7]): decrease
